Like-named read-outs stand apart in the source and are kept apart here.
Tests used:
Assay type in all cases: in vivo
Capsella bursa-pastoris = assay: Post-emergence foliage spray, pot culture, fresh weight inhibition (Tables 151-206; 20 days); settings: Capsella bursa-pastoris, 480 h, read-out: Control effect (%) of A applied alone in corresponding dose
Experimental: (§1) The above weeds were cultivated by a pot culture method. […] Full and uniform weed seeds were selected, soaked in warm water at 25° C. for 6 hours, and germinated in a 28° C. biochemical incubator (darkness). The weed seeds that had just germinatedwere evenly placed on the surface of the soil and then covered with 0.5-1 cm soil according to the sizes of seeds.
(§2) The technical materials were all dissolved in acetone, and diluted with an aqueous solution containing 0.1% emulsifier Tween-80. The dilution is performed as required.
(§3) A ratio of the active ingredient A to the active ingredient B and amounts thereof in each group depends on the characteristics and toxicity of the two agents, as well as the main application purpose of a corresponding formulation. Based on the pre-tests in this study, the dosage of the active ingredient A and B applied alone and in combination were shown in the tables. Water containing the solvent and emulsifier same with the above groups but free of the agents was used as a blank control.
(§4) In the stage of weeds with 3˜4 leaves, the weeds were thinned out to maintain 15 weeds per pot and 45 weeds for each treatment, then continued to be cultured to 4˜5 leaves stage of grassy weeds, 5˜6 leaves stage of broadleaf weeds, and treated.
(§5) The well-cultured weeds were evenly placed on a platform with an area of 0.5 m^2, and a solution of agents was sprayed on the stems and leaves thereof by the 3WP-2000-type walking spray tower at a dosage of 450 kg/ha and at a spray pressure of 0.3 MPa. After all the solution was sprayed, the valve was closed. After 30 seconds, the door of the spray tower was opened, and the nutritional bowl was taken out. Then the valve was opened, and the spray tube was cleaned by spraying 50 ml of water.
(§6) A pot-culture method was employed. For the cultivation of weeds, please refer to the Section 1.1), and “Pesticide guidelines for laboratory bioactivity tests—herbicides”. As to a method for applying agents, please refer to the section 2.3.2), that is, a foliage treatment was employed. After the treatment, the weeds were routinely cultured in a greenhouse.
(§7) A method for investigating absolute number was employed, wherein whole seedlings of survival weeds were cut off with a blade along the soil surface, and the fresh weight of the weeds was weighed with an analytical balance. For dead weeds, the fresh weight thereof was zero.
(§8) Wherein, in the formula, X represented the fresh weight inhibition rate of the active ingredient A in a dosage of P, and Y represented the fresh weight inhibition rate of the active ingredient B in a dosage of Q.

Amaranthus retroflexus [1] = assay: as above
Experimental: as §1, §2, §3, §4, §5, §6, §7, §8

Eleusine indica = assay: as above
Method in brief: (§9)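 Field-collected weeds grown in pots in a greenhouse (20-30° C., natural light, 57-72% RH), 15 per pot, 3 pots × 4 replicates. Single foliar spray at 4-5 leaves (grasses) or 5-6 leaves (broadleaf) with acetone/0.1% Tween-80 dilutions at 450 kg/ha, 0.3 MPa. Above-ground fresh weight inhibition versus solvent blank at 20 days.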

Conyza Canadensis = assay: as above
Method in brief: as §9

Sinapis arvensis = assay: as above
Method in brief: as §9

Veronica didyma = assay: as above
Method in brief: as §9

Alopecurus japonicus = assay: as above
Method in brief: as §9

Digitaria sanguinalis = assay: as above; settings: Digitaria sanguinalis, 480 h, 20 days, read-out: Control effect (%) of A applied alone in corresponding dose; for pest or weed control at 75 g/ha: A 75 g a.i./ha; for pest or weed control at 150 g/ha: A 150 g a.i./ha
Method in brief: as §9

Chenopodium album = assay: Post-emergence foliage spray, pot culture, fresh weight inhibition (Tables 1-48, 51-98, 101-148; 24 days)
Method in brief: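 Pot-grown weeds were thinned to 15 per pot (45 per treatment) and sprayed on foliage at the 5–6-leaf stage for grasses or the 6–7-leaf stage for broadleaves. Agents were dissolved in acetone with 0.1% Tween-80 and applied at 450 kg/ha spray volume and 0.3 MPa. Plants were then kept in a greenhouse. Above-ground fresh weight of survivors, with dead plants counted as zero, gave inhibition versus a solvent/emulsifier blank.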

Amaranthus retroflexus [2] = assay: as above
Method in brief: (§10)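 Greenhouse pot plants (20–30 °C, natural light, 57–72% RH) were sprayed once on foliage at 450 kg/ha and 0.3 MPa, at the 5–6-leaf (grass) or 6–7-leaf (broadleaf) stage. Compounds were in acetone diluted with 0.1% Tween-80 water. Surviving shoots were weighed at 24 days; dead plants counted as zero.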

Acalypha australis = assay: as above
Method in brief: as §10

[3] = A alone 75 g a.i./ha, 20 days after treatment
[4] = A alone 150 g a.i./ha, 20 days after treatment

**Q.** How did the pest or weed control at 75 g/ha (Capsella bursa-pastoris; A 75 g a.i./ha, 20 days) turn out when `COC(=O)[C@@H](C)Oc1nc(F)c(Cl)c(N)c1Cl` [Compound A67] was run?
**A.** Its pest or weed control at 75 g/ha is 51.4%.

**Q.** And the pest or weed control at 150 g/ha (Capsella bursa-pastoris; A 150 g a.i./ha, 20 days)?
**A.** Its pest or weed control at 150 g/ha is 75.6%.

**Q.** What about the “Control effect (%) of A applied alone in corresponding dose” value (shortened to “Control effect (%) of A applied alone”) (Amaranthus retroflexus [1]; A 75 g a.i./ha, 20 days) of the same compound?
**A.** Its value is 31.7%.

**Q.** And the “Control effect (%) of A applied alone” value (Amaranthus retroflexus [1]; A 150 g a.i./ha, 20 days)?
**A.** Its value is 63.9%.

**Q.** What about the “Control effect (%) of A applied alone” value (Eleusine indica; A 75 g a.i./ha, 20 days) of the same compound?
**A.** Its value is 42.5%.

**Q.** What about the “Control effect (%) of A applied alone” value (Eleusine indica; A 150 g a.i./ha, 20 days) of the same compound?
**A.** Its value is 75.3%.

**Q.** And the “Control effect (%) of A applied alone” value (Conyza Canadensis; A 75 g a.i./ha, 20 days)?
**A.** The value was 45.9%.

**Q.** What about the “Control effect (%) of A applied alone” value (Conyza Canadensis; A 150 g a.i./ha, 20 days) of the same compound?
**A.** The value was 65.6%.

**Q.** And the “Control effect (%) of A applied alone” value (Sinapis arvensis; A 75 g a.i./ha, 20 days)?
**A.** The value was 45.7%.

**Q.** What about the “Control effect (%) of A applied alone” value (Sinapis arvensis; A 150 g a.i./ha, 20 days) of the same compound?
**A.** Its value is 72.8%.

**Q.** And the “Control effect (%) of A applied alone” value (Veronica didyma; A 75 g a.i./ha, 20 days)?
**A.** Its value is 23.2%.

**Q.** What about the “Control effect (%) of A applied alone” value (Veronica didyma; A 150 g a.i./ha, 20 days) of the same compound?
**A.** Its value is 43.1%.

**Q.** What about the “Control effect (%) of A applied alone” value (Alopecurus japonicus; A 75 g a.i./ha, 20 days) of the same compound?
**A.** The value was 28.7%.

**Q.** And the “Control effect (%) of A applied alone” value (Alopecurus japonicus; A 150 g a.i./ha, 20 days)?
**A.** The value was 52.4%.

**Q.** What about the pest or weed control at 75 g/ha (Digitaria sanguinalis) of the same compound?
**A.** The pest or weed control at 75 g/ha was 23.4%.

**Q.** What about the pest or weed control at 150 g/ha (Digitaria sanguinalis) of the same compound?
**A.** Its pest or weed control at 150 g/ha is 62.2%.

**Q.** `C[C@@H](Oc1nc(F)c(Cl)c(N)c1Cl)C(=O)OCc1ccco1` [Compound A163] was tested. Which pest or weed control at 75 g/ha (Capsella bursa-pastoris; [3]) did it give?
**A.** The pest or weed control at 75 g/ha was 41.1%.

**Q.** And the pest or weed control at 150 g/ha (Capsella bursa-pastoris; [4])?
**A.** Its pest or weed control at 150 g/ha is 60.5%.

**Q.** What about the “Control effect (%) of A applied alone” value (Amaranthus retroflexus [1]; [3]) of the same compound?
**A.** The value was 26.6%.

**Q.** What about the “Control effect (%) of A applied alone” value (Amaranthus retroflexus [1]; [4]) of the same compound?
**A.** The value was 53.7%.

**Q.** And the “Control effect (%) of A applied alone” value (Eleusine indica; [3])?
**A.** Its value is 31.7%.

**Q.** What about the “Control effect (%) of A applied alone” value (Eleusine indica; [4]) of the same compound?
**A.** Its value is 56.0%.

**Q.** And the “Control effect (%) of A applied alone” value (Conyza Canadensis; [3])?
**A.** Its value is 39.0%.

**Q.** What about the “Control effect (%) of A applied alone” value (Conyza Canadensis; [4]) of the same compound?
**A.** Its value is 55.8%.

**Q.** What about the “Control effect (%) of A applied alone” value (Sinapis arvensis; [3]) of the same compound?
**A.** The value was 29.6%.

**Q.** What about the “Control effect (%) of A applied alone” value (Sinapis arvensis; [4]) of the same compound?
**A.** The value was 47.2%.

**Q.** And the “Control effect (%) of A applied alone” value (Veronica didyma; [3])?
**A.** Its value is 18.6%.

**Q.** What about the “Control effect (%) of A applied alone” value (Veronica didyma; [4]) of the same compound?
**A.** The value was 34.5%.

**Q.** And the “Control effect (%) of A applied alone” value (Alopecurus japonicus; [3])?
**A.** The value was 24.1%.

**Q.** And the “Control effect (%) of A applied alone” value (Alopecurus japonicus; [4])?
**A.** Its value is 44.0%.

**Q.** What about the pest or weed control at 75 g/ha (Digitaria sanguinalis) of the same compound?
**A.** The pest or weed control at 75 g/ha was 16.6%.

**Q.** What about the pest or weed control at 150 g/ha (Digitaria sanguinalis) of the same compound?
**A.** The pest or weed control at 150 g/ha was 45.4%.

**Q.** Which results are given for `O=C(O)c1cc(Oc2ccc(C(F)(F)F)cc2Cl)ccc1[N+](=O)[O-]` [acifluorfen-sodium]?
**A.** Control effect (%) of B applied alone in corresponding dose (Chenopodium album; Table 95, 37.5 g a.i./ha): 2.0%; Control effect (%) of B applied alone in corresponding dose (Chenopodium album; Table 95, 75 g a.i./ha): 13.7%; Control effect (%) of B applied alone in corresponding dose (Chenopodium album; Table 95, 150 g a.i./ha): 45.0%; Control effect (%) of B applied alone in corresponding dose (Chenopodium album; Table 95, 300 g a.i./ha): 81.0%; Control effect (%) of B applied alone in corresponding dose (Amaranthus retroflexus [2]; acifluorfen-sodium 37.5 g a.i./ha): 4.4%; Control effect (%) of B applied alone in corresponding dose (Amaranthus retroflexus [2]; acifluorfen-sodium 75 g a.i./ha): 10.3%; Control effect (%) of B applied alone in corresponding dose (Amaranthus retroflexus [2]; acifluorfen-sodium 150 g a.i./ha): 45.1%; Control effect (%) of B applied alone in corresponding dose (Amaranthus retroflexus [2]; acifluorfen-sodium 300 g a.i./ha): 85.0%; Control effect (%) of B applied alone in corresponding dose (Acalypha australis; B 37.5 g a.i./ha): 5.8%; Control effect (%) of B applied alone in corresponding dose (Acalypha australis; B 75 g a.i./ha): 11.6%; Control effect (%) of B applied alone in corresponding dose (Acalypha australis; B 150 g a.i./ha): 46.6%; Control effect (%) of B applied alone in corresponding dose (Acalypha australis; B 300 g a.i./ha): 85.3%

**Q.** With `C#CCN1C(=O)COc2cc(F)c(N3C(=O)C4=C(CCCC4)C3=O)cc21` [flumioxazin] as the compound, how does the “Control effect (%) of B applied alone in corresponding dose” value (“Control effect (%) of B applied alone” below) (Chenopodium album; Table 96, 7.5 g a.i./ha) read?
**A.** Its value is 3.4%.

**Q.** What about the “Control effect (%) of B applied alone” value (Chenopodium album; Table 96, 15 g a.i./ha) of the same compound?
**A.** Its value is 12.8%.

**Q.** And the “Control effect (%) of B applied alone” value (Chenopodium album; Table 96, 30 g a.i./ha)?
**A.** Its value is 37.3%.

**Q.** What about the “Control effect (%) of B applied alone” value (Chenopodium album; Table 96, 60 g a.i./ha) of the same compound?
**A.** Its value is 78.8%.

**Q.** What about the “Control effect (%) of B applied alone” value (Amaranthus retroflexus [2]; flumioxazin 7.5 g a.i./ha) of the same compound?
**A.** Its value is 5.5%.

**Q.** And the “Control effect (%) of B applied alone” value (Amaranthus retroflexus [2]; flumioxazin 15 g a.i./ha)?
**A.** Its value is 12.4%.

**Q.** And the “Control effect (%) of B applied alone” value (Amaranthus retroflexus [2]; flumioxazin 30 g a.i./ha)?
**A.** The value was 37.4%.

**Q.** What about the “Control effect (%) of B applied alone” value (Amaranthus retroflexus [2]; flumioxazin 60 g a.i./ha) of the same compound?
**A.** The value was 78.9%.

**Q.** What about the “Control effect (%) of B applied alone” value (Acalypha australis; B 7.5 g a.i./ha) of the same compound?
**A.** The value was 6.9%.

**Q.** And the “Control effect (%) of B applied alone” value (Acalypha australis; B 15 g a.i./ha)?
**A.** Its value is 13.7%.

**Q.** What about the “Control effect (%) of B applied alone” value (Acalypha australis; B 30 g a.i./ha) of the same compound?
**A.** The value was 39.0%.

**Q.** What about the “Control effect (%) of B applied alone” value (Acalypha australis; B 60 g a.i./ha) of the same compound?
**A.** Its value is 79.3%.

From US20220264878A1, “HERBICIDAL COMPOSITION CONTAINING R-TYPE PYRIDYLOXY CARBOXYLIC ACID DERIVATIVE AND USE THEREOF” (Qingdao Kingagroot Chemical Compound Co., Ltd., priority 2019, published 2022)
